This assay in a line: Cell-Based Assay of NHE-3 Activity: Rat NHE-3-mediated Na+-dependent H+ antiport was measured using a modification of the pH sensitive dye method originally reported by Tsien (Proc. Natl. Acad. Sci. USA. (1984) 81(23): 7436-7440). Opossum kidney (OK) cells were obtained from the ATCC and propagated per their instructions. The rat NHE-3 gene was introduced into OK cells via electroporation, seeded into 96 well plates and grown overnight. Medium was aspirated from the wells, cells were washed twice with NaCl-HEPES buffer (100 mM NaCl, 50 mM HEPES, 10 mM glucose, 5 mM KCl, 2 mM CaCl2, 1 mM MgCl2, pH 7.4), then incubated for 30 min at room temperature with NH4Cl-HEPES buffer (20 mM NH4Cl, 80 mM NaCl, 50 mM HEPES, 5 mM KCl, 2 mM CaCl2, 1 mM MgCl2, pH 7.4) containing 5 uM BCECF-AM (Invitrogen). Cells were washed twice with Ammonium free, Na+-free HEPES (100 mM choline, 50 mM HEPES, 10 mM glucose, 5 mM KCl, 2 mM CaCl2, 1 mM MgCl2, pH 7.4) and incubated in the same buffer for 10 minutes at room temperature to lower intracellular pH. […] Initial rates were plotted as the average 3-6 replicates, and pIC50 values were estimated using GraphPad Prism.
The term IC50 denotes the concentration needed to halve the response being measured. For `CN1Cc2c(Cl)cc(Cl)cc2C(c2ccc(S(=O)(=O)NCCOCCOCCNC(=O)NCCOCCOCCNS(=O)(=O)c3ccc(C4CN(C)Cc5c(Cl)cc(Cl)cc54)cc3)cc2)C1` (stereo not drawn), the IC50 was under 10000 nM.

Take `N=C(N)N1CCN(c2ccc(-c3nc(N=C(N)N)nc4ccc(Cl)cc34)cc2)CC1`: the IC50 entry is “in the range around 316 nM”.

In the case of `CN1Cc2c(Cl)cc(Cl)cc2C(c2cccc(S(=O)(=O)NCCOCCOCCOCCNC(=O)NCCOCCOCCOCCNS(=O)(=O)c3cccc(C4CN(C)Cc5c(Cl)cc(Cl)cc54)c3)c2)C1` (stereo not drawn), the half-inhibitory concentration (IC50) result is “in the range around 316 nM”.

These data come from ChEMBL document CHEMBL5727484, “Compounds and methods for inhibiting NHE-mediated antiport in the treatment of disorders associated with fluid retention or salt overload and gastrointestinal tract disorders” (2020).
